# “Also recorded” adds a separate entry of the source.
# How the values were obtained:
# [1] = test system: COLO 316 cells; assay: Photocytotoxicity of endocytosed peptide; format: cell-based, human; settings: COLO 316, 3 µM for 1 h, washed, 560 nm
# Protocol: (§1) HeLa (human cervical adenocarcinoma), COS-7 (SV40 transformed African green monkey kidney fibroblast-like cell line) were obtained from ATCC. COLO 316 (human ovarian carcinoma) were obtained from Robert Burghardt (Department of Veterinary Integrative Biosciences, Texas A&M University). Cells were cultured in DMEM supplemented with 10% fetal bovine serum (FBS) and maintained at 37°C in a humidified environment with 5% CO2. Cells were plated in 8-well dishes so that the cells were 70% confluent after 24 h, washed 3 times with L-15 media, incubated with 3 to 10 µM peptides at 37°C for 1 h, washed 3 times with L-15, and imaged. Alternatively, cells were incubated in L-15 at 4°C to inhibit the endocytic uptake of peptides. In this case, cells were imaged with the peptide still present in solution and the low temperature was maintained for the entire duration of imaging. For photosensitization, cells were exposed to light (λex = 560±20 nm) for the indicated time points. Plasma membrane disruption was detected by addition of the cell-impermeable DNA stain SYTOX Blue (5 µM) during or after photosensitization.
# Figure 2 The photolytic and photocytotoxic effects of TMR-TAT occur rapidly and in all irradiated cells. […] The cells were washed with fresh media and endocytosis of TMR-TAT was confirmed by fluorescence microscopy. […]
# [2] = test system: HeLa cells; assay: Photosensitization of extracellular peptide at 4°C (endocytosis blocked); format: cell-based, human; settings: 3 µM, 4°C to block endocytosis, irradiated at 560 nm with compound still in the media
# Protocol: as §1
# It is therefore possible that the endosomal release observed in the experiments of Figure 1 might be necessary to cause cell death. To investigate whether this is the case, we examined if light-induced cell-death could be observed when the peptides were only localized at the plasma membrane of cells. For these experiments, HeLa cells were first incubated with the peptides (3 µM) at 4°C to block endocytosis. Cells were then irradiated with the peptides still present in the media (the peptide is not retained at the plasma membrane when cells are washed). […] Cells were then washed and observed by fluorescence imaging. […] On the other hand, the membrane damage and cell death obtained after TMR-TAT photosensitization were also observed when hematoporphyrin (HP) or hematoporphyrin derivative (HPD) were used (Fig. 4B). […]
# [3] = test system: red blood cells (RBCs)
# Protocol: Whole blood was purchased from Gulf Coast Regional Blood Center (Houston, TX). Erythrocytes were centrifuged for 5 min at 1500 g and the erythrocyte pellet was resuspended with PBS. This was repeated three times to remove plasma and buffy coat. The erythrocytes (50% volume in PBS) were diluted in PBS to a final concentration of 0.25%. Indicated concentration of peptide was added to the medium and the samples were added to the wells of an 8-well chamber glass slide (Nunc). Cells were typically allowed to settle to the bottom of the dish for 5 minutes prior to imaging so as to obtain a layer of cells in the focal plane.
# Cells were placed on an inverted epifluorescence microscope (Model IX81, Olympus, Center Valley, PA) equipped with a heating stage maintained at 37°C. The microscope is configured with a spinning disk unit to perform both confocal and wide-field fluorescence microscopy. Images were collected using a Rolera-MGI Plus back-illuminated EMCCD camera (Qimaging, Surrey, BC, Canada). Images were acquired using bright field imaging and two standard fluorescence filter sets: Texas Red (Ex = 560±20 nm/Em = 630±35 nm), and CFP (Ex = 436±10 nm/Em = 480±20 nm). The excitation light was from a 100 W halogen lamp (Olympus USH 1030C) passed through the filter cubes and 40 or 100× objective lenses. Neutral density filters (ND 1, 2, 3, or 4 on the instrument, corresponding to 100, 25, 12.5, or 5% transmittance) and different exposure times were used to modulate the amount of light samples were exposed to. The bright field and fluorescence intensities of cells and ghosts were measured using the SlideBook 4.2 software (Olympus, Center Valley, PA). To determine the percentage of cells stained by SYTOX® Blue, cells were imaged with a 20× objective by phase contrast. Ten to twenty images were acquired for each experiment. The total number of cells in a given image was determined from the phase contrast image while the number of dead cells was determined by identifying cells containing a blue fluorescent nucleus stained by SYTOX® Blue. Cell viability was determined by establishing a ratio of dead cells/total number of cells for each sample (at least 1000 cells were counted in each experiments and each experiments were repeated 3 times).
# TMR and TMR containing peptides were used at 2 µM. All experiments were performed by irradiating the samples at 560 nm for 400 msec (∼8 J/cm^2). The data in the histogram represents the average of 4 experiments and the error bars correspond to the standard deviation.
# [4] = test system: HeLa cells; assay: Photocytotoxicity of endocytosed peptide after light irradiation (SYTOX Blue staining, membrane blebbing); format: cell-based
smiles,measurement,setting,value
CN(C)c1ccc2c(c1)Oc1cc(N(C)C)ccc1C21OC(=O)c2cc(C(=O)NCC(=O)N[C@@H](CCCNC(=N)N)C(=O)N[C@@H](CCCCN)C(=O)N[C@@H](CCCCN)C(=O)N[C@@H](CCCNC(=N)N)C(=O)N[C@@H](CCCNC(=N)N)C(=O)N[C@@H](CCC(N)=O)C(=O)N[C@@H](CCCNC(=N)N)C(=O)N[C@@H](CCCNC(=N)N)C(=O)N[C@@H](CCCNC(=N)N)C(=O)NCC(N)=O)ccc21 [TMR-TAT],"photo-induced activities (morphological changes, SYTOX Blue staining)",[1],only observable in the irradiated area; also recorded: could be reproduced
same,light-induced cell death with peptide only extracellular,[2],"dramatic cytoplasmic extrusion, membrane blebbing, shrinkage and cell death"
same,lysis of RBCs when light exposure is increased,"[3]; 3 µM, 560 nm",more than 90%
same,lysis of RBCs in the absence of irradiation,"[3]; RBCs 0.25% in PBS, 1 to 5 µM, no 560 nm light",No lysis
same,photohemolysis (lytic effect on RBCs upon light exposure),"[3]; RBCs 0.25% in PBS, irradiation at 560 nm",started lysing immediately upon excitation with light
same,photohemolysis after removal of oxygen,[3]; incubation media degassed with nitrogen,greatly reduced
same,cell destruction after irradiation at 430 nm,"[4]; HeLa incubated with TMR-TAT, 430 nm (not absorbed by TMR), radiant exposure approx. 40 J/cm^2",not destroyed
same,cell death on exposure to light of wavelengths not absorbed by TMR,"[4]; HeLa, e.g. 436 or 470 nm",no cell death
